Test results published in patent US9951373B2, “Oplophorus-derived luciferases, novel coelenterazine substrates, and methods of use” (Promega Corporation, priority 2010, dated 2018).
Where two headings read alike, the source gives them in different places.

Columns and labels:
[1] = Stability of coelenterazines in reporter reagent buffer (T90); conditions: time for luminescent signal to decay by 10% at 22° C. in reporter reagent buffer; read with IV lysate
[2] = target: T1, OgLuc variant 9B8 (Oplophorus gracilirostris, UniProt Q9GV45, A31E/A60K/A81I/F95Y/I117V/L99Q/M102K/N193R/P142E/Q151K/Q38R/Q45L/V71I/Y165I); assay: LOPAC library inhibition screen; type: biochemical; conditions: preliminary LOPAC screen, 9B8, 20 μM substrate
T1 construct: The IV-based variants were generated in a pF4Ag vector background without HT7; made in house; host or cells: E. coli (crude lysate)
Experimental: To determine the susceptibility of the OgLuc variants to off-target interactions, the activity of the 9B8 and L27V variants was screened against a LOPAC (library of pharmacologically active compounds) library. A LOPAC 1280 library (Sigma) was prepared by diluting the compounds to 1 mM in DMSO. On the day of the assay, the compounds were diluted to 20 μM in 1×PBS, and 10 μL transferred to a 96-well, white plate. To each well, 10 μL of purified 9B8, L27V or firefly luciferase (Luc2) enzyme diluted 10^−4 in Glo Lysis Buffer (Promega Corp.) was added and incubated at room temperature for 2 min. […] For assaying firefly luciferase, the BRIGHT-GLO™ Assay reagent (Promega Corp.) was used according to the manufacturer's protocol. As a negative control, 8 wells of each plate contained 1×PBS+2% glycerol. As a positive control, 8 wells of each plate contained 2 mM Suramin in 2% DMSO or 2 mM luciferase inhibitor 1 in 2% DMSO (Calbiochem).

[3] = target: T2, red click beetle luciferase and OgLuc variant 9B8 opt (Oplophorus gracilirostris, UniProt Q9GV45, A31E/A60K/A81I/F95Y/I117V/L99Q/M102K/N193R/P142E/Q151K/Q38R/Q45L/V71I/Y165I); assay: Multiplexing with red click beetle luciferase, modified DUAL-GLO assay; type: biochemical; conditions: 9B8 opt, STOP&GLO Reagent with 20 μM of the substrate
T2 construct: The IV-based variants were generated in a pF4Ag vector background without HT7; made in house; host or cells: E. coli (crude lysate, diluted 1000-fold)
Experimental: (§1) A. Lysates of E. coli expressing the variant 9B8 opt were prepared as previously described in Example 27 and diluted 1000-fold in DMEM without phenol red+0.1% PRIONEX®. Luminescence from a sample containing 6.3 μg/mL of purified red click beetle luciferase and E. coli lysate expressing the variant 9B8 opt was detected using a modified DUAL-GLO® Luciferase Assay System (Promega Corp.). DUAL-GLO® STOP&GLO® Reagent containing 20 μM coelenterazine-h and DUAL-GLO® STOP&GLO® Reagent containing 20 μM PBI 3939 were used, according to the manufacturer's protocol, to detect the red click beetle luciferase and OgLuc variant 9B8 luciferase from a single sample. Three replicates were performed.
(§2) Luminescence was detected on a Turner MODULUS™ luminometer. […] The standard deviation (“+/−”) and coefficient of variance (“CV”) are also shown. A “no coelenterazine” control was performed to illustrate the amount of quenching of the red click beetle signal by the DUAL-GLO® STOP&GLO® Reagent of the DUAL-GLO® Luciferase Assay System in the absence of coelenterazine. The “no coelenterazine” control yielded a 349-fold quench.

[4] = tested on: red click beetle luciferase and OgLuc variant 9B8 opt; assay: as above; type: biochemical; conditions: first step, red click beetle luciferase signal
Experimental: as §1, §2

[5] = tested on: HEK293 cells
[6] = tested on: HEK293 cells; assay: Live cell luminescence with PBI-3939; type: cell-based, human; conditions: cells in culture, 60 μM
Experimental: A. The use of OgLuc variants and PBI-3939 in live cells was examined HEK293 cells were plated in 96-well plates at 15,000 cells/well and grown overnight at 37° C. The following day, the cells were transiently transfected using TRANSIT®-LT1 in 3 replicates with 100 ng of hRL or 9B8 opt in pF4Ag and grown overnight at 37° C. The following day the growth media was removed and replaced with media containing 60 μM VIVIREN™ Live Cell Substrate (Promega Corp.), 60 μM ENDUREN™ Live Cell Substrate (Promega Corp.), or 60 μM PBI-3939 for both hRL and 9B8 opt transfected cells. Non-transfected cells were used as background control. The plate was incubated at 37° C. during the course of one day and periodically measured on a TECAN® GENIOS™ Pro luminometer, i.e., 11 times over the course of 24 hrs.

T2 sequence (Q9GV45 other isoform, or with tags, fused parts or gaps with the stated changes): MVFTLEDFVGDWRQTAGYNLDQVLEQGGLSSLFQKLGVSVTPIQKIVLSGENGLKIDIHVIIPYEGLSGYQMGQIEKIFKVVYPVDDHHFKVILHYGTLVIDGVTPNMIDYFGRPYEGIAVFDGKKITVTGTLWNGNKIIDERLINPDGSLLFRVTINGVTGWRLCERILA
T1 sequence (Q9GV45 other isoform, or with tags, fused parts or gaps with the stated changes): as above

| Compound | Stability (pH 8) (T90 in hrs) [1] [hrs] | Stability (pH 8) (T90 in hrs) [hrs] | also measured |
| --- | --- | --- | --- |
| O=c1c(Cc2ccco2)nc2c(Cc3ccccc3)[nH]c(-c3ccc(O)cc3)cn1-2 [PBI-3945] | 3.3 |  |  |
| Oc1ccc(Cc2nc3c(Cc4ccccc4)nc(-c4ccc(O)cc4)cn3c2O)cc1 [native coelenterazine, coelenterazine] |  | 1.7 |  |
| O=c1c(Cc2ccccc2)nc2c(Cc3ccccc3)[nH]c(-c3ccccc3)cn1-2 [coelenterazine-hh, bisdeoxycoelenterazine, reference compound] | 2.0 |  |  |
| Cc1ccc(C(=O)Nc2ccc(S(=O)(=O)O)c3cc(S(=O)(=O)O)cc(S(=O)(=O)O)c23)cc1NC(=O)c1cccc(NC(=O)Nc2cccc(C(=O)Nc3cc(C(=O)Nc4ccc(S(=O)(=O)O)c5cc(S(=O)(=O)O)cc(S(=O)(=O)O)c45)ccc3C)c2)c1 [Suramin] |  |  | inhibition of OgLuc [2]: inhibitor of OgLuc |
| coelenterazine-h [reference compound] | 2.1 |  | Ogluc (average luminescence) [3]: 921,440; click beetle (average luminescence) [4]: 5,082,100 |
| O=c1c(Cc2ccco2)nc2c(Cc3ccccc3)[nH]c(-c3ccccc3)cn1-2 [PBI-3939, 8-benzyl-2-(furan-2-ylmethyl)-6-phenylimidazo[1,2-a]pyrazin-3(7H)-one] |  | 4.1 | Ogluc (average luminescence) [3]: 2,996,940; click beetle (average luminescence) [4]: 5,078,547; biocompatibility in terms of cell viability [5]: comparable biocompatibility to native coelenterazine; cell permeability [6]: can permeate cells in culture |
| O=c1c(Cc2cccs2)nc2c(Cc3ccccc3)[nH]c(-c3ccc(O)cc3)cn1-2 [PBI-4002] | 3.5 |  |  |
| O=c1c(Cc2cccs2)nc2c(Cc3ccccc3)[nH]c(-c3ccccc3)cn1-2 [PBI-3889, 8-benzyl-6-phenyl-2-(thiophen-2-ylmethyl)imidazo[1,2-a]pyrazin-3(7H)-one] |  | 2.9 |  |
| Cc1[nH]c(-c2ccccc2)cn2c(=O)c(Cc3ccc(O)cc3)nc1-2 [PBI-3896, 2-(4-hydroxybenzyl)-8-methyl-6-phenylimidazo[1,2-a]pyrazin-3(7H)-one] |  | 2.8 |  |
